Data published in patent US20240329056A1, “COMPONENT ASSAY FOR ALZHEIMER'S DISEASE IN A LIVING SUBJECT” (CASSAVA SCIENCES, INC., priority 2021, published 2024).
Values belong to the molecule of their own block, whether it stands above or below them.

Columns and labels:
[1] = system: Aβ42 complexes with α7-nicotinic acetylcholine receptor; test: Phase 2a trial, Aβ42 complexes with α7-nicotinic acetylcholine receptor; format: in vivo, human; conditions: after 28 days of treatment
Description: (§1) Briefly, the study included 13 mild-to-moderate Alzheimer's disease patients, age 50-85, Mini Mental State Exam≥16 and ≤24 with a cerebrospinal fluid total tau/Aβ42 ratio […]. A pharmaceutical composition containing 100 mg of simufilam (PTI-125) in an orally administered tablet were given to the patients twice daily for 28 consecutive days. The study was conducted at five sites in the U.S. under an Investigational New Drug (IND) application.
(§2) Biomarker reductions were at least p 0.001 by paired “t” test. Target engagement was shown in lymphocytes by a shift in filamin A's conformation from aberrant to native: 93% was aberrant on Day 1 vs. 40% on Day 28.

[2] = Phase 2a trial, plasma pharmacokinetics; format: in vivo, human
Description: as §1

[3] = target: α7-nicotinic acetylcholine receptor (Homo sapiens, UniProt P36544); conditions: cited from earlier work
α7-nicotinic acetylcholine receptor, sequence (P36544 23-502): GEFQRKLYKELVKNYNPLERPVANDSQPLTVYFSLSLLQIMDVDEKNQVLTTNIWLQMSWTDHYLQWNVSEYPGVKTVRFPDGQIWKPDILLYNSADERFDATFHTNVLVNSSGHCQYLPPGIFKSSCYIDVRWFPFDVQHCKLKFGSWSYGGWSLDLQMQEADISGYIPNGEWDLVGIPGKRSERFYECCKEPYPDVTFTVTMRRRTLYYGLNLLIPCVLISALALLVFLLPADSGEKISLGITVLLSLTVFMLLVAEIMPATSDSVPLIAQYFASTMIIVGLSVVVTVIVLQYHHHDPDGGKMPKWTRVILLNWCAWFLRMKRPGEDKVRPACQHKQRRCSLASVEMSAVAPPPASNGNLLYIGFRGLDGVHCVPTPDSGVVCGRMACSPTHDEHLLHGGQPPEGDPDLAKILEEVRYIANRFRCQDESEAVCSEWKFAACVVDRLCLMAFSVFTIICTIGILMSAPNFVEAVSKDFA

[4] = Phase 2a trial, safety and tolerability; format: in vivo, human; conditions: all patients, 100 mg twice daily for 28 days
Description: as §1

[5] = system: about 90 kDa FLNA polypeptide fragment; test: Phase 2a trial, about 90 kDa FLNA polypeptide fragment in plasma; format: in vivo, human; conditions: group of 13 patients, P<0.01
Description: FIG. 13 is a graph showing the amounts in arbitrary units of the about 90 kDa FLNA polypeptide fragment found in the plasma of 13 AD patients in a Phase 2a clinical trial who were treated with a medicament twice daily for 28 days and had their blood plasma assayed on days 0, 14 and 28 for the presence and amount of the about 90 kDa FLNA polypeptide fragment.
as §1
An assay for the presence and amount of the about 90 kDa FLNA polypeptide fragment in the plasma of each patient was also separately determined on days 0, 14 and 28 of the trial. […] Those results are shown graphically in FIG. 13 and indicate that the treatment appeared to be effective and was in agreement with the more standard assays.

filamin A = target: T1, filamin A (Homo sapiens, UniProt P21333); test: Phase 2a trial, target engagement in lymphocytes: filamin A conformation; format: in vivo
T1 construct: endogenous in cells; host or cells: patients' lymphocytes
T1 sequence (P21333 whole entry): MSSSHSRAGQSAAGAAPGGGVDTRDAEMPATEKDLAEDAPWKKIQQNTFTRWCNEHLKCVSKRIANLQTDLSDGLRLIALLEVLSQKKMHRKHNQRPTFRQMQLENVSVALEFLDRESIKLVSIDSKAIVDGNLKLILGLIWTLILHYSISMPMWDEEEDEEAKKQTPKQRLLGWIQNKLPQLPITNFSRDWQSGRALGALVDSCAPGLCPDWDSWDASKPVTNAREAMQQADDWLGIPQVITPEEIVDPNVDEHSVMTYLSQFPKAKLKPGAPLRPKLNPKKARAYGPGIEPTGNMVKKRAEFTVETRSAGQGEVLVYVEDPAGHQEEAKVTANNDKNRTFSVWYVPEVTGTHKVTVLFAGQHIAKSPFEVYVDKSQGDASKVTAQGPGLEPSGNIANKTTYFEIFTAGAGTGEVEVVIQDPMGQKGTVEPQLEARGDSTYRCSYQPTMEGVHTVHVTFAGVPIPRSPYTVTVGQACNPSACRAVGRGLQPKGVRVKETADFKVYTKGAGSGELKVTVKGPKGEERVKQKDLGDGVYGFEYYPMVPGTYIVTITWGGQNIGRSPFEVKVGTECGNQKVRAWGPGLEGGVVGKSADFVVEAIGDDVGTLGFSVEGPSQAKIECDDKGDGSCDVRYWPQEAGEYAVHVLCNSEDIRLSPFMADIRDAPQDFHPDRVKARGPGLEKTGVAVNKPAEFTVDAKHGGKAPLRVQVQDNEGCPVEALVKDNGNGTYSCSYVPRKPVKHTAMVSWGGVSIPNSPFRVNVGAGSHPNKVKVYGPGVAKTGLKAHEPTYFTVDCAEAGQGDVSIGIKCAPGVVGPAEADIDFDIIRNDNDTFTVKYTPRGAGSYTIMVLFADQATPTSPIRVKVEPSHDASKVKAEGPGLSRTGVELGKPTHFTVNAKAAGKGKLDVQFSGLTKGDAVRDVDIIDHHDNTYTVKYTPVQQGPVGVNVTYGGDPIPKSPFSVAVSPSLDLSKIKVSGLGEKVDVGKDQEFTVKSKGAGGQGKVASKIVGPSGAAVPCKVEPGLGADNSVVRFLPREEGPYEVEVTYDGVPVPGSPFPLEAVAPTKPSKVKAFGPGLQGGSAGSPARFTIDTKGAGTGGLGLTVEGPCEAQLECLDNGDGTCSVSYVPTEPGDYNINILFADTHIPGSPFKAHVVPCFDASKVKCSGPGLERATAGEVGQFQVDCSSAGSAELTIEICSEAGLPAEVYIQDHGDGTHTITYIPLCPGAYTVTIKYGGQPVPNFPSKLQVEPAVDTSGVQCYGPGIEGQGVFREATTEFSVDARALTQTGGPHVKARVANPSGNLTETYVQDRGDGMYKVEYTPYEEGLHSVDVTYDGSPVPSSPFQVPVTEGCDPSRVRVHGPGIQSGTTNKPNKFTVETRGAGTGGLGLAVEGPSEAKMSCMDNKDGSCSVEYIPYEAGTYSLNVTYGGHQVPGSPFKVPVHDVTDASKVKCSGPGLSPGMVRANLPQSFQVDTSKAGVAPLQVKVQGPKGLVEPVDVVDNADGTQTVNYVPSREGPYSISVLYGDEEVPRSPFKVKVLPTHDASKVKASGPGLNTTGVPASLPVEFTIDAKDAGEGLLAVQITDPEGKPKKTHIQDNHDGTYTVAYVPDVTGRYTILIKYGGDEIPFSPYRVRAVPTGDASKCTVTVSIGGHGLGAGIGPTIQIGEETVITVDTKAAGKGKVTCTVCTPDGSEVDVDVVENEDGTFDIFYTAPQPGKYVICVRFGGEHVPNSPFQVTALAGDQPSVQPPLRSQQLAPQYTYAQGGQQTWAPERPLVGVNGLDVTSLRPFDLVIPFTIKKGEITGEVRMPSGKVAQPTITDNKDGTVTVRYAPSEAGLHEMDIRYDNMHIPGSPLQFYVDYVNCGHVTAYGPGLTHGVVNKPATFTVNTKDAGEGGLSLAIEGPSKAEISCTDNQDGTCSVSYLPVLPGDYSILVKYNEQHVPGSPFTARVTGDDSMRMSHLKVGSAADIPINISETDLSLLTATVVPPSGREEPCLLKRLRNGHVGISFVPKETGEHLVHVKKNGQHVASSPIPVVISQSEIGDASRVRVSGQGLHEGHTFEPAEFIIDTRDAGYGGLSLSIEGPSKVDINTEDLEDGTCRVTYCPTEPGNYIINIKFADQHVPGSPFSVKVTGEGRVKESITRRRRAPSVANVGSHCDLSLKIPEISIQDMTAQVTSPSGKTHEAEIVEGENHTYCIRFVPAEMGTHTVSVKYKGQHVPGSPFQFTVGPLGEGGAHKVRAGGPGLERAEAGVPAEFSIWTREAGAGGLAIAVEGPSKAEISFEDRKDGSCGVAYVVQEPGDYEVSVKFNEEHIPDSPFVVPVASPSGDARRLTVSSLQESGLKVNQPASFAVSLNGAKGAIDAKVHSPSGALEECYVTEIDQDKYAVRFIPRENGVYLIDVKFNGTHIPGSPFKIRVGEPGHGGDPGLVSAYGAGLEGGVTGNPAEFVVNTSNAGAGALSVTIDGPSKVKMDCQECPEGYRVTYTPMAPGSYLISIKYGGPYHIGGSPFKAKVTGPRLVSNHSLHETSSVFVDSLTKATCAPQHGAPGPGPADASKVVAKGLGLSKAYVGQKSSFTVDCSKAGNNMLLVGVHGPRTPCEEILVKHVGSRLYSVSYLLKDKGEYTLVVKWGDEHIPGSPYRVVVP
Description: as §1, §2

Aβ42 complexes with CD14 = test: Phase 2a trial, Aβ42 complexes with CD14; format: in vivo, human; conditions: after 28 days of treatment
Description: as §1, §2

[6] = target: T2, filamin A linkages with α7-nicotinic acetylcholine receptor (Homo sapiens, UniProt P21333); test: Phase 2a trial, filamin A linkage with α7-nicotinic acetylcholine receptor; format: in vivo; conditions: after 28 days of treatment
T2 construct: filamin A linkages with α7-nicotinic acetylcholine receptor and toll-like receptor 4; endogenous in cells; host or cells: patients' lymphocytes
Description: as §1, §2

[7] = system: cerebrospinal fluid biomarkers of Alzheimer's disease pathology, neurodegeneration and neuroinflammation; test: Phase 2a clinical trial, cerebrospinal fluid and plasma biomarkers; format: in vivo, human
Excerpt: A small Phase 2a clinical trial that utilized a contemplated prognostic method along with other methodologies was first reported in the fall of 2019. The results of that trial were thereafter reported at Clinical Trials on Alzheimer's Disease (CTAD), December 4-7th, 2019 in San Diego, CA, and were published as Wang et al., J Prev Alzheimers Dis published 7 Feb. 2020. The use of the assay disclosed herein was neither shown nor discussed in that article.
as §1
Consistent with the drug's mechanism of action and preclinical data, the simufilam (PTI-125) reduced cerebrospinal fluid biomarkers of Alzheimer's disease pathology, neurodegeneration and neuroinflammation from baseline to Day 28.
Total tau, neurogranin, and neurofilament light chain decreased by 20%, 32% and 22%, respectively. Phospho-tau (pT181) decreased 34%, evidence that the compound suppresses tau hyperphosphorylation induced by Aβ42's signaling through α7-nicotinic acetylcholine receptor. Cerebrospinal fluid biomarkers of neuroinflammation (YKL-40 and inflammatory cytokines) decreased by 5-14%. Biomarker effects were similar in plasma.
This increase is consistent with the compound's 1,000-fold reduction of Aβ42's femtomolar binding affinity to α7-nicotinic acetylcholine receptor.

[8] = target: T3, filamin A linkages with toll-like receptor 4 (Homo sapiens, UniProt P21333); test: Phase 2a trial, filamin A linkage with toll-like receptor 4; format: in vivo; conditions: after 28 days of treatment
T3 construct: filamin A linkages with α7-nicotinic acetylcholine receptor and toll-like receptor 4; endogenous in cells; host or cells: patients' lymphocytes
Description: as §1, §2

cytokine release = conditions: Wang et al., J. Neurosci. 2012; cited from earlier work
[9] = target: FLNA association with toll-like receptor 4 (TLR4) (Homo sapiens, UniProt P21333); conditions: Wang et al., J. Neurosci. 2012; cited from earlier work
[10] = system: prefrontal cortex and hippocampus brain slices; test: Ex vivo organotypic brain slice culture with Aβ42 exposure; format: cell-based; conditions: rat brain slices, serum-deprived, 100 μM Aβ1-42
Description: We hypothesize that the 90-kDa pS^2152FLNA fragment is derived from degenerated and ruptured neurons in the brain.
Using two brain regions known to be vulnerable to AD damage, 200-μm sections of prefrontal cortex and hippocampus were prepared from 10-week-old rats. These brain slices were cultured as described previously (Wang et al., above) for 4 days to permit recovery of slice preparation damage. These slices were then serum-deprived and incubated with 100 μM Aβ1-42 (Aβ42).
The presence of the 90-kDa pS^2152-FLNA fragments and pS^2152-FLNA protein, as well as other biomarkers that reflect neuronal destruction, nitrated tau (nY^29-tau) and glial damage [truncated glial fibrillary acidic protein (GFAP)] in the culture medium were assessed by Western blotting. The specificity of Aβ42 was defined by Aβ421, an intrareversal peptide.
The 90-kDa pS^2152-FLNA fragment, but not full-length (280-kDa) pS^2152-FLNA protein, appears in the medium starting at 4 hours post-Aβ42 addition and steadily increases over time. […] In addition, full-length GFAP, followed by its truncated form, appears early following Aβ1-42 exposure.

[11] = cerebrospinal fluid, baseline to Day 28, 100 mg twice daily

- Drug accumulation ([2]; Day 28 vs. Day 1): approximately 30%
- half-life ([2]; human, plasma, AD patients, 100 mg oral twice daily): 4.5 h
- Aberrant filamin A conformation (filamin A; Day 1): 93%
- Aberrant filamin A conformation (filamin A; Day 28): 40%
- Filamin A linkages with α7-nicotinic acetylcholine receptor [6]: significantly reduced
- Filamin A linkages with toll-like receptor 4 [8]: significantly reduced
Molecule: CN1CCC2(CC1)NCC(=O)N2Cc1ccccc1 [simufilam]
- Aβ42 complexes with α7-nicotinic acetylcholine receptor [1]: significantly reduced
- Reduction of Aβ42's femtomolar binding affinity to α7-nicotinic acetylcholine receptor [3]: 1,000 fold
- Safety and tolerability [4]: safe and well-tolerated
- Amount of the 90 kDa FLNA polypeptide fragment in the plasma ([5]; 14 days into the trial): decrease
- Amount of the 90 kDa FLNA polypeptide fragment in the plasma ([5]; 28 days into the trial): decrease
- Aβ42 complexes with CD14 (Aβ42 complexes with CD14): significantly reduced
- Biomarker response ([7]; 13 mild-to-moderate AD patients, 100 mg oral tablet twice daily for 28 days, baseline to Day 28): All patients showed a biomarker response
- Aβ42 change ([7]; baseline to Day 28, 100 mg twice daily): increased slightly
- Cerebrospinal fluid biomarkers of neuroinflammation (YKL-40 and inflammatory cytokines) decrease [7, 11]: 5-14%
- Neurofilament light chain decrease [7, 11]: 22%
- Neurogranin decrease [7, 11]: 32%
- Phospho-tau (pT181) decrease [7, 11]: 34%
- Total tau decrease [7, 11]: 20%
- Biomarker effects in plasma ([7]; plasma compared with cerebrospinal fluid): similar
- Cytokine release (cytokine release): preventing
- FLNA association with toll-like receptor 4 (TLR4) [9]: reducing

Molecule: Aβ42: amyloid-beta peptide generated by cleavage of amyloid precursor protein; used to induce AD-like damage in brain slices
- Time of first appearance of 90-kDa pS2152-FLNA fragment in the medium post-Aβ42 addition [10]: 4 hours
